{"source": "patent EP0542807B1", "about": "“USE OF 2-PHENYL-1,2-BENZISOSELENAZOL-3(2H)-ONE” (RHONE-POULENC RORER GMBH, priority 1990, dated 1992)", "key": {"LLC-PK1 cells": {"tested_on": "LLC-PK1 cells", "test": "In-vitro toxicity of cisplatin in LLC-PK1 cells (LDH-leakage, protein remaining attached to the culture plate)", "assay_type": "cell-based, porcine", "method": "LLC-PK1 are porcine kidney cells which express many characteristics of proximal tubule epithelium. […] In this cell line the LDH-leakage can be used as criterium for cell toxicity.\nCells were seeded in 24 well culture dishes ([…]) and allowed to grow to confluence (2.4 x 10^5 cell/cm^2) over 8 days in serum containing 5 % fetal calf serum. The cells were then maintained in serum-free medium for 2 days before drug treatment. Only monolayers in which dome formation occurred were used for the experiments.\nEbselen was dissolved in 2% dimethylsulfoxide in the sterile salt solution.\nAfter incubation, the monolayers were washed 3 times with physiological saline to remove residual drug. Subsequently, the cells were grown in medium containing 5% fetal calf serum. Cell viability was assessed at different timepoints. In control experiments, monolayers were exposed to the vehicle in stead of drugs.\nIn control experiments, ebselen was replaced by the vehicle."}, "[1]": {"test": "Histology of kidneys and retroperitoneal ganglionic tissue", "assay_type": "in vivo, BALB/c mice", "conditions": "cisplatin alone versus cisplatin and ebselen given 1 h before", "method": "Histology. Mice were sacrificed four days after treatment with cisplatin alone or Ebselen and cisplatin. Control groups were treated with Ebselen alone or the vehicle. Kidneys and livers were removed and processed for light microscopy. Sections of 6 um thickness were cut and stained in hematoxylin : eosin. All slides were examined without prior knowledge of the treatment given to the animal from which the specimen under investigation was taken."}, "MPC 11 tumor cells": {"tested_on": "MPC 11 tumor cells", "test": "Nephrotoxicity and antitumor activity in mice inoculated with MPC 11 tumor cells", "assay_type": "in vivo, BALB/c mice", "conditions": "for T/C: T/C=MST treated/ MST control", "description": "(§1) Tumors. MPC 11 tumor cells were obtained from the institute of Pathology, University of Utrecht, The Netherlands. The MPC 11 tumor originated as a plasmacytoma, and was originally obtained from Dr. D. Catty, Birmingham, United Kingdom. The tumor cells were maintained by weekly passages in BALB/c mice. Freshly harvested ascitic cells were used in the experiments. Cells were counted with a hemocytometer. Transplantable Prima mammary tumor cells were obtained from the Radiobiological Institute TNO, Rijswijk, The Netherlands. The Prima tumor originated as a mammary carcinoma, induced by forced breeding in BALB/c mice bearing murine mammary tumor virus. The Prima tumor cell-line was cultured in vitro in standard Dulbecco's modification of Minimal Essential Medium (Gibco, Paisley, United Kingdom), supplemented with L-glutamine (500 mg/l), 2-mercapto-ethanol (60 umol/l) and 10% fetal calf serum (Flow Laboratories, Zwanenburg, The Netherlands).\n(§2) Laboratory Animals. Female BALB/c mice were obtained from the Central Institute for the Breeding of Laboratory Animals/Harlan Sprague-Dawley (CPB/HSD), Zeist, The Netherlands. The mice were 8 weeks of age and weighed 18-20 g at the start of the experiments. All animals were provided with standard laboratory food (SRMA chow, Hope Farms, Woerden, The Netherlands) and water ad libitum.\n(§3) Treatment. Animals were divided at random into groups of 8. […] Ebselen was dissolved in f a mixture of dimethylsulfoxide/polyethyleneglycol/physiological saline (1/4/20) and administered i.p. in a volume of 0.6 ml.\nEvaluation of Antitumor Activity. […] Control groups were treated with ebselen or the vehicle. Mice were examined daily for occurrence of tumors. The experiments were terminated on Day 42 and median survival times (MSTs) were calculated.\n(§4) Statistics. Student's test, unpaired, was used to evaluate the significance of differences between experimental groups. The level of significance was set at P < 0.05."}, "Prima breast tumor cells": {"tested_on": "Prima breast tumor cells", "test": "Nephrotoxicity and antitumor activity in mice inoculated with Prima breast tumor cells", "assay_type": "in vivo, BALB/c mice", "conditions": "for T/C Day 15: T/C = mean tumor weight treated/control mice; for Incidence of tumors Day 8: by palpation", "description": "as §1, §2, §3\nControl groups were treated with ebselen or the vehicle. The occurrance of tumors was examined daily by palpation. The experiments were terminated on Day 15 when the tumors were excised and weighed.\nas §4"}, "[2]": {"test": "Acute toxicity (LD0) in mice", "assay_type": "in vivo", "conditions": "acute investigations", "method": "(§5) Since, in contrast to the previously known and applied selenium compounds, Ebselen is low in toxicity (LD0 > 1000 mg/kg body weight in acute investigations in mice and rats) and the maximum doses to be administered lie greatly below this value, administration to patients can be regarded as being without danger."}, "[3]": {"test": "Acute toxicity (LD0) in rats", "assay_type": "in vivo", "conditions": "acute investigations", "method": "as §5"}, "[4]": {"test": "Cisplatin-induced nephrotoxicity in mice (kidney function: BUN, serum creatinine)", "assay_type": "in vivo, BALB/c mice", "conditions": "for Effect on cisplatin-induced increase of BUN and serum creatinine: Day 4", "method": "as §2, §3\nKidney Function. […] Blood samples were obtained from the retroorbital venous plexus in the mice.\nas §4"}, "[5]": {"design": "species or system BALB/c mice", "conditions": "mouse, in vivo", "method": "Kidney Function. […] Blood samples were obtained from the retroorbital venous plexus in the mice. Serum creatinine and BUN were measured daily in pilot studies (data not shown) and in more extensive studies at the time of maximally observed toxicity : Day 4.\nLiver Function. […] Control groups were treated with ebselen or the vehicle."}, "[6]": {"conditions": "Cisplatin 11.5 mg/kg alone, n=8"}}}
{"compound": "N.N.[Cl][Pt][Cl]", "note": "[Cisplatin]", "values": [{"measurement": "Time at which decrease in cell viability was first observed", "setting": "LLC-PK1 cells; cisplatin 0.4 mM for 1 h, time after termination of the incubation", "value": 24, "unit": "h"}, {"measurement": "Damage to retroperitoneal ganglionic cells", "setting": "[1]", "value": "more pronounced"}, {"measurement": "T/C", "setting": "MPC 11 tumor cells; Cisplatin 4.0 mg/kg alone", "value": 150, "unit": "%"}, {"measurement": "Incidence of tumors Day 7", "setting": "MPC 11 tumor cells; Cisplatin 4.0 mg/kg alone, n=8", "value": 100, "unit": "%"}, {"measurement": "MST", "setting": "MPC 11 tumor cells; Cisplatin 4.0 mg/kg alone, n=8", "value": "24 ± 4", "unit": "days"}, {"measurement": "T/C", "setting": "MPC 11 tumor cells; Cisplatin 6.5 mg/kg alone", "value": 181, "unit": "%"}, {"measurement": "Incidence of tumors Day 7", "setting": "MPC 11 tumor cells; Cisplatin 6.5 mg/kg alone, n=8", "value": 100, "unit": "%"}, {"measurement": "MST", "setting": "MPC 11 tumor cells; Cisplatin 6.5 mg/kg alone, n=8", "value": "29 ± 4", "unit": "days"}, {"measurement": "T/C", "setting": "MPC 11 tumor cells; Cisplatin 9.0 mg/kg alone", "value": ">300", "unit": "%"}, {"measurement": "Incidence of tumors Day 7", "setting": "MPC 11 tumor cells; Cisplatin 9.0 mg/kg alone, n=8", "value": 0, "unit": "%"}, {"measurement": "MST", "setting": "MPC 11 tumor cells; Cisplatin 9.0 mg/kg alone, n=8", "value": ">30", "unit": "days"}, {"measurement": "T/C", "setting": "MPC 11 tumor cells; Cisplatin 11.5 mg/kg alone", "value": ">300", "unit": "%"}, {"measurement": "Incidence of tumors Day 7", "setting": "MPC 11 tumor cells; [6]", "value": 0, "unit": "%"}, {"measurement": "MST", "setting": "MPC 11 tumor cells; [6]", "value": ">48", "unit": "days"}, {"measurement": "Incidence of tumors Day 7", "setting": "MPC 11 tumor cells; Cisplatin 14.5 mg/kg alone, n=8", "value": 0, "unit": "%"}, {"measurement": "T/C Day 15", "setting": "Prima breast tumor cells; Cisplatin 6.5 mg/kg alone", "value": 93, "unit": "%"}, {"measurement": "Incidence of tumors Day 8", "setting": "Prima breast tumor cells; Cisplatin 6.5 mg/kg alone", "value": 100, "unit": "%"}, {"measurement": "Mean tumor weight Day 15", "setting": "Prima breast tumor cells; Cisplatin 6.5 mg/kg alone, n=8", "value": "1.4 ± 0.2", "unit": "g"}, {"measurement": "T/C Day 15", "setting": "Prima breast tumor cells; Cisplatin 9.0 mg/kg alone", "value": 47, "unit": "%"}, {"measurement": "Incidence of tumors Day 8", "setting": "Prima breast tumor cells; Cisplatin 9.0 mg/kg alone", "value": 0, "unit": "%"}, {"measurement": "Mean tumor weight Day 15", "setting": "Prima breast tumor cells; Cisplatin 9.0 mg/kg alone, n=8", "value": "0.7 ± 0.4", "unit": "g"}, {"measurement": "T/C Day 15", "setting": "Prima breast tumor cells; Cisplatin 11.5 mg/kg alone", "value": 28, "unit": "%"}, {"measurement": "Incidence of tumors Day 8", "setting": "Prima breast tumor cells; Cisplatin 11.5 mg/kg alone", "value": 0, "unit": "%"}, {"measurement": "Mean tumor weight Day 15", "setting": "Prima breast tumor cells; [6]", "value": "0.42 ± 0.08", "unit": "g"}, {"measurement": "T/C Day 15", "setting": "Prima breast tumor cells; Cisplatin 14.5 mg/kg alone", "value": 7, "unit": "%"}, {"measurement": "Incidence of tumors Day 8", "setting": "Prima breast tumor cells; Cisplatin 14.5 mg/kg alone", "value": 0, "unit": "%"}, {"measurement": "Efficacy against the Prima mammary tumor", "setting": "Prima breast tumor cells; cisplatin 9.0 and 11.5 mg/kg", "value": "effective"}, {"measurement": "Mice with tumors as assessed by palpation on Day 7", "setting": "Prima breast tumor cells; cisplatin […] alone, n=8", "value": "None"}]}
{"compound": "O=c1c2ccccc2[se]n1-c1ccccc1", "note": "[Ebselen, 2-phenyl-1,2-benzisoselenazol-3(2H)-one]", "values": [{"measurement": "LD0", "setting": "[2]", "value": "> 1000", "unit": "mg/kg body weight"}, {"measurement": "LD0", "setting": "[3]", "value": "> 1000", "unit": "mg/kg body weight"}, {"measurement": "Cell viability versus cells not pre-exposed (time course)", "setting": "LLC-PK1 cells; 10 uM Ebselen 1 h, then 0.4 mM cisplatin 1 h, whole period up till 72 h", "value": "significantly higher"}, {"measurement": "Ebselen concentration of highest protection", "setting": "LLC-PK1 cells; pre-incubation 1 h before cisplatin, concentration-dependent", "value": 15, "unit": "µM"}, {"measurement": "Protection from cisplatin-induced decrease in viability", "setting": "LLC-PK1 cells; pre-incubation with Ebselen 5-15 uM for 1 h, then 0.2 or 0.4 mM cisplatin 1 h, t = 72 h", "value": "protected the cells from a decrease in viability"}, {"measurement": "Protection from cisplatin-induced decrease in viability", "setting": "LLC-PK1 cells; pre-incubation with ebselen, cisplatin 0.8 mM for 1 h", "value": "could not protect the cells against the decrease in viability"}, {"measurement": "Effect on cisplatin-induced increase of BUN and serum creatinine", "setting": "[4]; Ebselen 1 h before cisplatin 11.5 to 19.0 mg/kg", "value": "prevented the increase in levels of BUN and serum creatinine at all cisplatin doses tested with exception of the highest dose"}, {"measurement": "Ebselen dose of maximal protection against cisplatin-induced nephrotoxicity", "setting": "[4]; cisplatin 14.5 mg/kg, ebselen i.p. 1 h before", "value": 10.0, "unit": "mg/kg"}, {"measurement": "Effect on cisplatin-induced increase of BUN and serum creatinine", "setting": "[4]; ebselen 1 h after cisplatin", "value": "a protective effect against cisplatin-induced elevations of the levels of BUN and serum creatinine was also observed, but less marked"}, {"measurement": "Functional liver- or kidney-damage", "setting": "[5]", "value": "did not cause functional liver- or kidney-damage"}, {"measurement": "T/C", "setting": "MPC 11 tumor cells; Ebselen 10.0 mg/kg alone", "value": 106, "unit": "%"}, {"measurement": "Incidence of tumors Day 7", "setting": "MPC 11 tumor cells; Ebselen 10.0 mg/kg alone, n=8", "value": 100, "unit": "%"}, {"measurement": "MST", "setting": "MPC 11 tumor cells; Ebselen 10.0 mg/kg alone, n=8", "value": "17 ± 2", "unit": "days"}, {"measurement": "Survival Day 7", "setting": "MPC 11 tumor cells; Ebselen 10.0 mg/kg alone, n=8", "value": 100, "unit": "%"}, {"measurement": "Influence on the antitumor activity of cisplatin", "setting": "MPC 11 tumor cells; MPC 11 plasmacytoma, ebselen i.p. 1 h prior to cisplatin", "value": "did not reduce the antitumor activity of cisplatin"}, {"measurement": "MST versus vehicle control", "setting": "MPC 11 tumor cells; ebselen alone", "value": "identical to that of the control group"}, {"measurement": "Influence on the antitumor activity of cisplatin", "setting": "Prima breast tumor cells; Ebselen 10 mg/kg 1 h before cisplatin", "value": "did not reduce the antitumor activity of cisplatin"}, {"measurement": "Efficacy against the Prima tumor", "setting": "Prima breast tumor cells; Ebselen 10 mg/kg alone", "value": "not effective"}, {"measurement": "T/C Day 15", "setting": "Prima breast tumor cells; Ebselen 10.0 mg/kg alone", "value": 100, "unit": "%"}, {"measurement": "Incidence of tumors Day 8", "setting": "Prima breast tumor cells; Ebselen 10.0 mg/kg alone", "value": 100, "unit": "%"}, {"measurement": "Mean tumor weight Day 15", "setting": "Prima breast tumor cells; Ebselen 10.0 mg/kg alone, n=8", "value": "1.5 ± 0.4", "unit": "g"}, {"measurement": "Survival Day 8", "setting": "Prima breast tumor cells; Ebselen 10.0 mg/kg alone, n=8", "value": 100, "unit": "%"}]}
